Each structure is given as a SMILES string. Counter-ions that a name gives are not always drawn.

This experiment has as its target recombinant human arginases 1 and 2. Briefly: Human Arginase Activity Assay (urea measurement, colorimetric). In kind it is biochemical. The conditions noted are these: 37° C., 60 min, isoform not given, read-out: Activity Class (IC50). The procedure:
Human Arginase Activity Assay
The assay was run in the 96-well plate format, each reaction in the total volume of 100 ul. The assay is based on urea measurement, which is a product of L-arginine enzymatic degradation. (Baggio et al. J. Pharmacol. Exp. Ther. 1999, 290, 1409-1416). The color product is developed by adding a mixture of reagent A (10 mM o-phthaldialdehyde and 0.4% polyoxyethylene (23) lauryl ether (w/v) in 1.8 M sulfuric acid) and reagent B (1.3 mM primaquine diphosphate, 0.4% polyoxyethylene (23) lauryl ether (w/v), and 130 mM boric acid in 3.6 M sulfuric acid) in equal proportions. The absorbance for each well was measured at 530 nm and was referred to the concentration curve determined using urea as a standard.
Briefly, to each well of a 96-well microtiter plate 40 μL of enzyme, 50 μL of the test compound solution, and 10 μL of enzyme substrate solution (L-arginine+manganese chloride) was added. For positive control, only the enzyme and substrate was added, the negative controls contained only manganese chloride. After incubating the microtiter plate at 37° C. for 60 min, 150 μL of a urea reagent was added to each well to stop the reaction. After quenching the reaction mixture, the plate was left for 20 min at room temperature in order to allow color development. Absorbance was measured with Envision® Reader (Perkin-Elmer) (λ=530 nm).
The IC50 values were calculated using GraphPad Prism and divided into the following classes: […]
As usually defined, the IC50 is the midpoint of a concentration-inhibition curve. On to `NC(=O)NCC(N)(CCCCB(O)O)C(=O)O` (stereo not drawn) [Example 3, 2-Amino-6-borono-2-(ureidomethyl)hexanoic acid hydrochloride], for which the IC50 was 10000 to 100000 nM. Take `CN(C)S(=O)(=O)NCC(N)(CCCCB(O)O)C(=O)O` (stereo not drawn) [Example 4, 2-Amino-6-borono-2-(((N,N-dimethylsulfamoyl)amino)methyl)hexanoic acid hydrochloride]: the IC50 was 100 to 1000 nM. On to `NC(CCCCB(O)O)(CNS(=O)(=O)NCc1ccccc1)C(=O)O` (stereo not drawn) [Example 5, hydrochloride], for which the IC50 lay in the range of 1000 to 10000 nM. With `CNS(=O)(=O)NCC(N)(CCCCB(O)O)C(=O)O` (stereo not drawn) [Example 6, hydrochloride], the IC50 fell in the range of 100 to 1000 nM. Then `CNC(=N)NCC(N)(CCCCB(O)O)C(=O)O` (stereo not drawn) [Example 7, 2-Amino-6-borono-2-((3-methylguanidino)methyl)hexanoic acid hydrochloride], with 100 to 1000 nM; and `CNC(CCCCB(O)O)(CNS(N)(=O)=O)C(=O)O` (stereo not drawn) [Example 8, 6-Borono-2-(methylamino)-2-((sulfamoylamino)methyl)hexanoic acid hydrochloride], with 100 to 1000 nM; and `CNC(CCCCB(O)O)(CNC(=N)N)C(=O)O` (stereo not drawn) [Example 9, 6-Borono-2-(guanidinomethyl)-2-(methylamino)hexanoic acid dihydrochloride], with 1 to 100 nM. Turning to `NC(CCCCB(O)O)(CCS(N)(=O)=O)C(=O)O` (stereo not drawn) [Example 10, 2-Amino-6-borono-2-(2-sulfamoylethyl)hexanoic acid hydrochloride], the IC50 was 1000 to 10000 nM. Then `NC(CCCCB(O)O)(CCNS(N)(=O)=O)C(=O)O` (stereo not drawn) [Example 12, hydrochloride], with 1000 to 10000 nM; and `NC(CCCCB(O)O)(C(=O)O)C1CCN(S(N)(=O)=O)CC1` (stereo not drawn) [Example 14, 2-Amino-6-borono-2-(1-sulfamoylpiperidin-4-yl)hexanoic acid hydrochloride], with 1000 to 10000 nM. Then `CN(C)S(=O)(=O)N1CCC(C(N)(CCCCB(O)O)C(=O)O)CC1` (stereo not drawn) [Example 15, 2-Amino-6-borono-2-(1-(N,N-dimethylsulfamoyl)piperidin-4-yl)hexanoic acid hydrochloride], with 10000 to 100000 nM; and `NC(CCCCB(O)O)(C(=O)O)C1CCN(S(=O)(=O)NCc2ccc(C(F)(F)F)cc2)CC1` (stereo not drawn) [Example 16, 2-Amino-6-borono-2-(1-(N-(4-(trifluoromethyl)benzyl)sulfamoyl)piperidin-4-yl)hexanoic acid hydrochloride], with 1000 to 10000 nM.

(Values after patent US10329310B2, “Arginase inhibitors and their therapeutic applications” (ONCOARENDI THERAPEUTICS S.A., priority 2014, dated 2019).)
